From patent US5942532A, “2-substituted phenyl-benzimidazole antibacterial agents” (Ortho Pharmaceutical Corporation, priority 1997, dated 1999)

Biological target: T1, Kinase A and Spo0F (Bacillus subtilis, UniProt P16497)
T1 construct: made in house; host or cells: recombinant E. coli
T1 sequence (P16497 1-606): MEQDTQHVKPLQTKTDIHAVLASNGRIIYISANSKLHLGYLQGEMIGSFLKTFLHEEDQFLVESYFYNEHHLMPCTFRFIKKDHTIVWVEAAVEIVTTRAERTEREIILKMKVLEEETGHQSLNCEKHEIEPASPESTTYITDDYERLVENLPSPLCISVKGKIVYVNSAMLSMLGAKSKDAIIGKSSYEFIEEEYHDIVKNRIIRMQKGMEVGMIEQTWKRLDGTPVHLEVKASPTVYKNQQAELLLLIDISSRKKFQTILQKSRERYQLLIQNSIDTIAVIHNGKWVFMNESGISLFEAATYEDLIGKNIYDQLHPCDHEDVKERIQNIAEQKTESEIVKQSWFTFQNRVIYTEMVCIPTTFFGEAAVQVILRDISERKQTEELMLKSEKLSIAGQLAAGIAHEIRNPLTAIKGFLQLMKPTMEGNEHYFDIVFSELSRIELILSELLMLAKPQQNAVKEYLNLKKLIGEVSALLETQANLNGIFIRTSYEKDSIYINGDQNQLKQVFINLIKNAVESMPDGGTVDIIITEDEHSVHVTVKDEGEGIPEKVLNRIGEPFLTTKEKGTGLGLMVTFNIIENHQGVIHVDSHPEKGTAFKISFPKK
Assay: Autophosphorylation of Kinase A and Transphosphorylation of Spo0F Assay (HPK in vitro assay)
Type: biochemical
Conditions: Table 6, KinA/Spo0F phosphorylation, in µM
Method: Autophosphorylation of Kinase A and Transphosphorylation of Spo0F Assay
To study the effect of the compounds of the present invention on the signal transduction process in bacteria, the inhibiting effect of the compounds on the sporulation operon proteins Kinase A and Spo0F was examined. Specifically, the inhibition of autophosphorylation of Kinase A and the transphosphorylation of Spo0F was determined in the following assays. The Spo0F response regulator is the primary substrate for phosphorylation by the protein kinase, Kin A, involved in the sporulation process in bacteria. See D. Burbulys, K. A. Trach, J. A. Hoch, Cell, 64, 545-552 (1991). Spo0F and KinA were prepared from recombinant E. coli overexpressing the proteins (J. Cavanagh et al, Amino Acids, 6, 131-140 (1994) and references therein).
The following stock reagents were either prepared and used promptly or stored at the indicated temperature:
8×Salts: 2 M KCl (5 mL), 1 M MgCl2 (800 mL), 1 M CaCl2 (100 mL), 10 mg/mL phenylmethylsulfonyl fluoride (200 mL), 1 M dithioreitol (50 mL), 0.25 M Na2 EDTA (32 mL) and H2 O 3.82 mL (-20° C.)
5×Loading Dye: 0.5M TRIS-HCl, pH 6.8 (7.5 mL), 10% SDS (2 mL) 0.1% bromophenol blue (0.5 mL), 100% glycerol (3 mL) and 12.5 M 2-mercaptoethanol (0.3 mL)
1-1.3 mg/mL KinA: 15 mM TRIS-HCl, pH 8.0, 6 mM KCl; 4 mM 2-mercaptoethanol;40% glycerol (-20° C.)
1 mg/mL Spo0F: 17.5 mM TRIS-HCl, pH 8.0; 0.7 mM KCl; 0.7 mM MgCl2; 0.7 mM CaCl2; 5 mM 2-mercaptoethanol; 30% glycerol (-20° C.)
5% Stacking Gel: 40% 29:1 acrylamide:bis acrylamide (1.25 mL), 0.5 M TRIS-HCl, pH 6.8 (2.5 mL), 10% SDS (0.1 mL), D-H2 O (6.15 mL) 10% ammonium persulfate (100 mL) and TEMED (25 mL)
SDS Running Buffer: TRIS-BASE (3.02 g), glycine (14.4 g), SDS (1 g), D-H2 O (to 1 L)
The reaction mixture was prepared from 8×Salts (87 μL), 1M TRIS, pH 8 (118 μL), 50% glycerol (63 μL), Spo0F (14.1 μL) and KinA (7.0 μL). Microcentrifuge tubes were charged with the reaction mixture (18.5 μL) and a 1.0 mM solution of the test compound in 5% DMSO (18.5 μL), and incubated for 15 min on ice. 100 mM ATP solution (3.0 μl, containing 625 μCi [^32 P]ATP) was added, and the mixture left for 10 minutes at room temperature. The reaction was quenched with 5× loading dye (10 μL per tube) and the samples were loaded on a prepared 5% Stacking Gel, or stored on dry ice until ready for use. The prepared wells were filled with SDS Running Buffer, samples were loaded into the wells, and 80 volts were applied to the gel until the dye front reached the bottom of the stacking gel. The voltage was then increased to 250 volts until electrophoresis was complete. Radioactive bands in the gel corresponding to phosphorylated KinA and Spo0F were imaged and quantitated with a phosphoimager.
If either enzyme was inhibited (as evidenced by the absence of labelled protein in the developed gel), an IC50 was calculated by running the assay with a range of inhibitor concentrations from 1 to 500 μM. After electrophoresis of the reaction mixtures, percent inhibition was determined by measuring the concentration of radioactive phosphorus with a phosphoimager and calculating the values using a software program (BioRad Molecular Analyst).

- IC50: 4
Structure (SMILES): CC(C)(C)c1cc(-c2nc3ccc(CN)cc3[nH]2)c(O)c(C(C)(C)C)c1 [Example 91]
